# Laboratory results: PMC7738283, “Discovery of orally active chalcones as histone lysine specific demethylase 1 inhibitors for the treatment of leukaemia” (Journal of Enzyme Inhibition and Medicinal Chemistry, 2020)
# Entries after “also recorded” stand apart in the source; their conditions may differ.
# Columns and labels:
# [1] = target: T1, MAO-B (Homo sapiens, UniProt P27338); assay: MAO-B inhibition assay (MAO-Glo kit); type: biochemical; settings: for IC50: in vitro, MAO-AB [sic]
# T1 construct: purchased Active Motif 31503
# T1 sequence (P27338 1-520): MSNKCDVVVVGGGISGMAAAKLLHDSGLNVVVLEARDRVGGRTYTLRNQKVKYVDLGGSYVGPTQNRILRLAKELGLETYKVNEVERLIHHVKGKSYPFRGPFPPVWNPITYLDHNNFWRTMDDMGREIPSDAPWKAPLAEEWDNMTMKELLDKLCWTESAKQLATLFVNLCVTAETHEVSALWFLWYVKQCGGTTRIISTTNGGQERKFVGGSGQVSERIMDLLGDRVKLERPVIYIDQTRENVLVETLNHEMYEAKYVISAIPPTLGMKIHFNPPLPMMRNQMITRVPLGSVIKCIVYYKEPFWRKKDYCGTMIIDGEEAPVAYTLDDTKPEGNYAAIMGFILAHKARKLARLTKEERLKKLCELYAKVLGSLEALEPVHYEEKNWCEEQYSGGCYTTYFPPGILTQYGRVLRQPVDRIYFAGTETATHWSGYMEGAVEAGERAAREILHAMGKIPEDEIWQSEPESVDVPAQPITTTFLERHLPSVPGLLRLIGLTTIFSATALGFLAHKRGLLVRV
# Description: (§1) The inhibition of LSD1 activity was evaluated according to reported references. pET-28b-LSD1 (full length) was transfected into BL21 (DE). Then, the protein was induced with 0.25 mmol/L IPTG following sonication and purified with Ni-NTA (Qiagen, Tubingen, Germany), Resource Q (GE, Pittsburgh, PA, USA) and Sephacryl S-200 HR (GE, Pittsburgh, PA, USA). The fluorescence intensity was read using EnVision Plate Reader (PerkinElmer, Waltham, MA, USA) to calculate the inhibition rate. The MAO-A and MAO-B were purchased from Active Motif (Cat#31502, Cat#31503, Carlsbad, CA, USA). Biochemical Kits were purchased from Promega (MAO-Glo Assay, Madison, WI, USA). The inhibitory activities of MAO-A and MAO-B were obtained according to the reported reference. The inhibitory activities of CDK1 and CDK2 were obtained according to the reported reference.
# [2] = target: T2, LSD1 (Homo sapiens, UniProt O60341); assay: LSD1 enzyme inhibition assay (recombinant LSD1, fluorescence); type: biochemical; settings: for IC50: in vitro
# T2 construct: pET-28b-LSD1 (full length) was transfected into BL21 (DE); inferred from the pET-28b vector and Ni-NTA purification; made in house; host or cells: E. coli BL21 (DE)
# Description: (§3) The inhibition of LSD1 activity was evaluated according to reported references [23, 24]. pET-28b-LSD1 (full length) was transfected into BL21 (DE). Then, the protein was induced with 0.25 mmol/L IPTG following sonication and purified with Ni-NTA (Qiagen, Tubingen, Germany), Resource Q (GE, Pittsburgh, PA, USA) and Sephacryl S-200 HR (GE, Pittsburgh, PA, USA). The fluorescence intensity was read using EnVision Plate Reader (PerkinElmer, Waltham, MA, USA) to calculate the inhibition rate. […] The inhibitory activities of CDK1 and CDK2 were obtained according to the reported reference [26].
# [3] = target: T3, MAO-A (Homo sapiens, UniProt P21397); assay: MAO-A inhibition assay (MAO-Glo kit); type: biochemical; settings: for IC50: in vitro
# T3 construct: purchased Active Motif 31502
# T3 sequence (P21397 1-527): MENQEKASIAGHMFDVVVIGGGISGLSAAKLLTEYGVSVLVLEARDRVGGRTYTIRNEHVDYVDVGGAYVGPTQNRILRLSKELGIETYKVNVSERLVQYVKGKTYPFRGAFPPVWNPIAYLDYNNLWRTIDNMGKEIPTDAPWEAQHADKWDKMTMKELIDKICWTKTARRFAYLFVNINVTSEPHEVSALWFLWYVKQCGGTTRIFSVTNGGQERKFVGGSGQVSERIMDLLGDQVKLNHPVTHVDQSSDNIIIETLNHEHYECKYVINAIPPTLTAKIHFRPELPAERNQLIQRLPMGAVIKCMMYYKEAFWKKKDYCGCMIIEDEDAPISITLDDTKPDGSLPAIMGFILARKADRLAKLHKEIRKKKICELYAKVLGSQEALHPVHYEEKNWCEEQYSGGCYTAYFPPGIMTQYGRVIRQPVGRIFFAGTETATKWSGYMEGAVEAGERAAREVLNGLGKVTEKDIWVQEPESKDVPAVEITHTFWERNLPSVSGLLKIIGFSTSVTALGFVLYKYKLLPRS
# Description: as §1
# [4] = test system: HAL-01 cells; assay: MTT cell viability assay, HAL-01; type: cell-based; settings: Homo sapiens, HAL-01 leukaemia cells, read-out: IC50 cell proliferation HAL-01
# Description: (§4) All cell lines were purchased from the China Centre for Type Culture Collection (CCTCC, China). […] Then, 20 μL of MTT (3–(4,5-dimethylthiazol-2-yl)-2,5-diphenyltetrazolium bromide) solution (5 mg/ml) was added and the cells were incubated for 4 h. The absorbance was measured using a microplate reader (DeTie Technology Co., Ltd, NanJing, China).
# [5] = test system: LC4-1 cells; assay: MTT cell viability assay, LC4-1; type: cell-based; settings: Homo sapiens, LC4-1 leukaemia cells, read-out: IC50 cell proliferation LC4-1
# Description: as §4
# [6] = test system: KE-37 cells; assay: MTT cell viability assay, KE-37; type: cell-based; settings: Homo sapiens, KE-37 leukaemia cells, read-out: IC50 cell proliferation KE-37
# Description: as §4
# [7] = test system: MOLT-4 cells; assay: MTT cell viability assay, MOLT-4; type: cell-based, human
# Description: as §4
# [8] = test system: P30-OHK cells; assay: MTT cell viability assay, P30-OHK; type: cell-based; settings: Homo sapiens, P30-OHK leukaemia cells, read-out: IC50 cell proliferation P30-OHK
# Description: as §4
# [9] = test system: SUP-B15 cells; assay: MTT cell viability assay, SUP-B15; type: cell-based; settings: Homo sapiens, SUP-B15 leukaemia cells, read-out: IC50 cell proliferation SUP-B15
# Description: as §4
# [10] = test system: IMR-32 (neuroblastoma cells); assay: MTT cell viability assay, IMR-32; type: cell-based; settings: 4, 8, 16 μM; 48 h and 72 h
# Description: (§2) Cancer cell lines (Hela, 22RV1, Caco-2, BEL-7402, MOLT-4, OVCAR-3, HCT-8, HIC, IMR-32, HAL-01, KE-37, P30-OHK, SUP-B15 and LC4-1) were maintained in RPMI 1640 medium (Hyclone, Los Angeles, CA, USA) with 10% foetal bovine serum (Hyclone, Los Angeles, USA) and 1% penicillin-streptomycin (Hyclone, Los Angeles, USA) in a humidified atmosphere of 5% CO2 and 95% air at 37 °C. All cell lines were purchased from the China Centre for Type Culture Collection (CCTCC, China). Control containing sequence specific for LSD1 ([…]) was described. The shRNA constructs were transfected into MOLT-4 cells using the Lonza Group nucleofector technology in accordance with the manufacturer’s instructions. MOLT-4&shLSD1 cells and MOLT-4&shControl cells were also established and cultured according to the published references. After the incubation for 24 h, cancer cell lines were cultured with the chalcone D6 at different concentrations. Then, 20 μL of MTT (3–(4,5-dimethylthiazol-2-yl)-2,5-diphenyltetrazolium bromide) solution (5 mg/ml) was added and the cells were incubated for 4 h. The absorbance was measured using a microplate reader (DeTie Technology Co., Ltd, NanJing, China).
# [11] = test system: H3K9me1 and H3K9me2 in MOLT-4 cells; assay: Western blotting of LSD1 substrates H3K9me1/2 in MOLT-4 cells; type: cell-based, human; settings: western blot
# Description: Western blot was performed with the total lysates using RIPA buffer (Hyclone, Los Angeles, CA, USA). Same amounts of protein were subjected to SDS-PAGE, and then transferred to nitrocellulose membranes (PALL, Cortland, NY, USA). After blocking with 5% milk solution, the membranes were incubated at 4 °C with respective antibody overnight, followed by the incubation with a secondary antibody. Finally, the blot was visualised by enhanced chemiluminescence kit (Thermo Fisher, Waltham, MA, USA).
# [12] = test system: 22RV1 (prostate cancer cells); assay: MTT cell viability assay, 22RV1; type: cell-based; settings: 4, 8, 16 μM; 48 h and 72 h
# Description: as §2
# [13] = test system: MOLT-4 xenograft; assay: MOLT-4 xenograft study; type: in vivo; settings: 60 mg/kg and 100 mg/kg, intragastric, 21 days
# Description: Animals were treated according to the protocols established by the ethics committee of Shengjing Hospital of China Medical University and the in vivo experiments were carried out in accordance with the approved guidelines and approved by the ethics committee of Shengjing Hospital of China Medical University. BALB/c nude mice were purchased from Hunan Slack Scene of Laboratory Animal Co., Ltd. (Hunan, China). Xenograft models using human leukaemia cells, MOLT-4, were established in BALB/c mice. Then, mice were separated into vehicle group and treatment groups (60 mg/kg and 100 mg/kg). The treatment groups received compound D6 by intragastric administration for a period of 21 days.
# [14] = target: CDK2 (Homo sapiens, UniProt P24941); assay: CDK2 enzyme assay; type: biochemical; settings: 400 nM; read-out: inhibition rate CDK2
# Description: as §3
# [15] = test system: Caco-2 (colon cancer cells); assay: MTT cell viability assay, Caco-2; type: cell-based; settings: 4, 8, 16 μM; 48 h and 72 h
# Description: as §2
# [16] = target: CDK1 (Homo sapiens, UniProt P06493); assay: CDK1 enzyme assay; type: biochemical; settings: 400 nM; read-out: inhibition rate CDK1
# Sequence of CDK1 (P06493 whole entry, species assumed): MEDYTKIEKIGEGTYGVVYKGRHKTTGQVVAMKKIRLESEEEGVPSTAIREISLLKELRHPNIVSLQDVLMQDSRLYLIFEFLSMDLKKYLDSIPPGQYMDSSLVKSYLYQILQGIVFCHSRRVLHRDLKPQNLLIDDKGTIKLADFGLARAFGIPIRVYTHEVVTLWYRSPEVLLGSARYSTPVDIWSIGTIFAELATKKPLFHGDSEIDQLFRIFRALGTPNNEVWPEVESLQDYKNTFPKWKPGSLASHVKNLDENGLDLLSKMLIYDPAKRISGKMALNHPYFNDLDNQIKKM
# Sequence of CDK1 (P14635 whole entry partner, species assumed): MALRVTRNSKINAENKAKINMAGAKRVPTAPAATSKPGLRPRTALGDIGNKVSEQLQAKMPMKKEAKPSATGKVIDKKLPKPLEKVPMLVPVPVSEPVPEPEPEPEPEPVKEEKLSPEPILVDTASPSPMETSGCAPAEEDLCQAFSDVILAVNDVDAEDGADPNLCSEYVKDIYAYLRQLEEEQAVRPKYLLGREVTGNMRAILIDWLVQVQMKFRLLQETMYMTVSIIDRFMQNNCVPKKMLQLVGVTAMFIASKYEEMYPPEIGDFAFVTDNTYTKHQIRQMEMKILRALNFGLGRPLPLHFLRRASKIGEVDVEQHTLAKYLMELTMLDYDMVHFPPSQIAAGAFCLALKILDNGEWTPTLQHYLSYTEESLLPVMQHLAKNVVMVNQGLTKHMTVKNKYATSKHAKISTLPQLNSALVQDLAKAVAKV
# Description: as §3
compound,measurement,setting,value
"CN1CCN(C(=S)SCC(=O)Nc2ccc(C(=O)/C=C/c3cccc(F)c3)cc2)CC1 [D4, (E)-2-((4–(3-(3-Fluorophenyl)acryloyl)phenyl)amino)-2-oxoethyl-4-methylpiperazine-1-carbodithioate]",IC50,[1],> 20 µM
same,IC50,[2],6.03 ± 0.17 µM
same,IC50,[3],> 20 µM
"Cc1ccc(Cn2cc(CSC(=S)N3CCN(C(=O)OC(C)(C)C)CC3)nn2)cc1 [Dithiocarbamate 26, reference compound]",IC50,[1],> 20 µM
same,IC50,[3],> 20 µM
O=C(CCl)Nc1ccc(C(=O)/C=C/c2ccc(F)cc2)cc1 [C4],IC50,[1],> 20 µM
same,IC50,[2],> 20 µM
same,IC50,[3],> 20 µM
O=c1[nH]cc(F)c(=O)[nH]1 [5-Fluorouracil],IC50,[4],5.1 µM
same,IC50,[5],10.2 µM
same,IC50,[6],4.02 µM
same,IC50,"[7]; Homo sapiens, MOLT-4 leukaemia cells, MTT, read-out: IC50 cell proliferation MOLT-4",2.89 µM
same,IC50,[8],4.17 µM
same,IC50,[9],2.1 µM
"O=C(CCl)Nc1ccc(C(=O)/C=C/c2ccccc2)cc1 [C1, (E)-2-Chloro-N-(4-cinnamoylphenyl)acetamide]",melting point,,145 to 147 °C
same,IC50,[1],> 20 µM
same,IC50,[2],> 20 µM
same,IC50,[3],> 20 µM
"CCN1CCN(C(=S)SCC(=O)Nc2ccc(C(=O)/C=C/c3ccccc3)cc2)CC1 [D3, (E)-2-((4-Cinnamoylphenyl)amino)-2-oxoethyl-4-ethylpiperazine-1-carbodithioate]",melting point,,181 to 183 °C
same,IC50,[1],> 20 µM
same,fold activity loss against LSD1 (fluorine replaced with hydrogen),[2]; D3 vs. D5,over 6 fold
same,IC50,[2],13.9 ± 0.18 µM
same,IC50,[3],> 20 µM
"CCN1CCN(C(=S)SCC(=O)Nc2ccc(C(=O)/C=C/c3cccc(F)c3)cc2)CC1 [D5, (E)-2-((4–(3-(3-Fluorophenyl)acryloyl)phenyl)amino)-2-oxoethyl-4-ethylpiperazine-1-carbodithioate]",melting point,,136 to 138 °C
same,IC50,[1],> 20 µM
same,IC50,[2],2.29 ± 0.35 µM
same,IC50,[3],> 20 µM
"O=C(CSC(=S)N1CCN(Cc2ccccc2)CC1)Nc1ccc(C(=O)/C=C/c2ccccc2F)cc1 [D7, (E)-2-((4–(3-(2-Fluorophenyl)acryloyl)phenyl)amino)-2-oxoethyl-4-benzylpiperazine-1-carbodithioate]",IC50,[1],> 20 µM
same,IC50,[2],3.27 ± 0.13 µM
same,IC50,[3],> 20 µM
"O=C(CCl)Nc1ccc(C(=O)/C=C/c2ccccc2F)cc1 [C3, (E)-2-Chloro-N-(4–(3-(2-fluorophenyl)acryloyl)phenyl)acetamide]",melting point,,167 to 169 °C
same,IC50,[1],> 20 µM
same,IC50,[2],15.4 ± 0.28 µM
same,IC50,[3],> 20 µM
"Nc1ccc(C(=O)/C=C/c2ccccc2F)cc1 [Chalcone 4, reference compound]",IC50,[1],> 20 µM
same,IC50,[2],> 20 µM
same,IC50,[3],> 20 µM
"CCN1CCN(C(=S)SCC(=O)Nc2ccc(C(=O)/C=C/c3ccc(F)cc3)cc2)CC1 [D1, (E)-2-((4–(3-(4-Fluorophenyl)acryloyl)phenyl)amino)-2-oxoethyl-4-ethylpiperazine-1-carbodithioate]",melting point,,182 to 184 °C
same,IC50,[1],> 20 µM
same,IC50,[2],11.3 ± 0.13 µM
same,IC50,[3],> 20 µM
"CN1CCN(C(=S)SCC(=O)Nc2ccc(C(=O)/C=C/c3ccccc3)cc2)CC1 [D2, (E)-2-((4-Cinnamoylphenyl)amino)-2-oxoethyl-4-methylpiperazine-1-carbodithioate]",IC50,[1],> 20 µM
same,IC50,[2],9.35 ± 0.14 µM
same,IC50,[3],> 20 µM
"CC(C)(C)OC(=O)N1CCN(C(=S)SCC(=O)Nc2ccc(C(=O)/C=C/c3ccccc3F)cc2)CC1 [D6, Tert-butyl-(E)-4-(((2-((4–(3-(2-fluorophenyl)acryloyl)phenyl)amino)-2-oxoethyl)thio)carbonothioyl)piperazine-1-carboxylate]",antiproliferative effects (cell viability) IMR-32,[10],potential antiproliferative effects
same,amount of H3K9me1 and H3K9me2,[11],induce the accumulation of H3K9me1/2; also recorded: concentration dependent accumulation; also recorded: up-regulated the expression levels of H3K9me1 and H3K9me2
same,expression level of LSD1,[11],did not affect
same,inhibition at 0.4 µM,"[1]; 400 nM, read-out: inhibition rate MAO-B",17.7%
same,IC50,[1],> 20 µM
same,antiproliferative effects (cell viability) 22RV1,[12],potential antiproliferative effects
same,body weight of mice,[13],almost unchanged
same,global toxicity in xenograft model,[13],low global toxicity; also recorded: without apparent toxicity
same,"tumour growth (tumour volume, tumour weight)",[13],significantly suppressed MOLT-4 xenograft tumour growth; also recorded: inhibited tumour growth remarkably; also recorded: inhibited in vivo tumour growth
same,inhibition at 0.4 µM,[14],19%
same,antiproliferative effects (cell viability) Caco-2,[15],potential antiproliferative effects
same,antiproliferative effects (cell viability) MOLT-4,"[7]; 4, 8, 16 μM, 48 h and 72 h",potential antiproliferative effects
same,antiproliferation efficiency,"[7]; MOLT-4 cells, 48 h, 4 μM",around 80%
same,inhibition at 0.4 µM,"[3]; 400 nM, read-out: inhibition rate MAO-A",16.3%
same,IC50,[3],> 20 µM
same,inhibition at 0.4 µM,[16],16.3%
"O=C(CCl)Nc1ccc(C(=O)/C=C/c2cccc(F)c2)cc1 [C2, (E)-2-Chloro-N-(4–(3-(3-fluorophenyl)acryloyl)phenyl)acetamide]",melting point,,156 to 158 °C
same,IC50,[1],> 20 µM
same,IC50,[2],19.7 ± 0.67 µM
same,IC50,[3],> 20 µM
